Measurements: patent US10189812B2, “Bi-benzyl isoquinoline derivative, preparation method and use thereof in hepatopathy treatment and prevention” (THE KEY LABORATORY OF CHEMISTRY FOR NATURAL PRODUCTS OF …, priority 2014, dated 2019)
Read-outs that look alike come from different tables or passages of the source.

Tests used:
[1] = tested on: PLC/PRF/5 liver cancer cell strains; assay: Tetrazolium salt reduction method (MTT) on human liver cancer cell strain PLC/PRF/5; assay type: cell-based
Description: 2. human liver cancer cell strains PLC/PRF/5 model discrimination
(§1) Tested methods: Tetrazolium salt reduction method (MTT)
(1) Inoculating cells: A uniform cell suspension was prepared with culture solution containing fetal calf serum (10%). The suspension was implanted into a 96-well cell culture disc by 1000-10000 cells/200 μL per well.
(§2) (2) Culturing cells: The cells were cultured for 3-5 days according to known methods in the art (culturing time depending on experiment objective and requirement).
(§3) (3) Colour response: The cells were cultured for 3-5 days, 20 μl of MTT solution (5 mg/mL, PBS <pH=7.4>) was added in each well, incubated for 4 h. Culture was terminated and the culture suspension was carefully sucked out. As for suspension cells, they need be centrifuged before suspension solution in wells was sucked out. 150 μL of DMSO was added in each well, vibrated for 10 min. The crystal was fully dissolved.
(§4) (4) Colorimetry: Light absorbance values in each well were measured by ELISA at 490 nm and the results were recorded. The cell growth curve was drawn with time as the abscissa and absorbance values as vertical coordinates.
Model principle: Dehydrogenase related to NADP exists in mitochondria of living cell. Yellow MIT is reduced to insoluble blue-purple Formanzan. Dehydrogenase is disappeared in dead cell and MIT can not be reduced. According to reduction extent, action effect of sample on tumor cell is defected.

[2] = tested on: MHCC97L liver cancer cell strains; assay: Tetrazolium salt reduction method (MTT) on human liver cancer cell strain MHCC97L; assay type: cell-based
Description: 3. human liver cancer cell strains MHCC97L model discrimination
as §1
(1) Inoculating cells: Inoculating cells: A uniform cell suspension was prepared with culture solution containing fetal calf serum (10%). The suspension was implanted into a 96-well cell culture disc by 1000-10000 cells/200 μL per well.
as §2, §3, §4
Model principle: Dehydrogenase related to NADP exists in mitochondria of living cell. Yellow MTT is reduced to insoluble blue-purple Formanzan. Dehydrogenase is disappeared in dead cell and MTT can not be reduced. According to reduction extent, action effect of sample on tumor cell is defected.

[3] = Homo sapiens, PLC-PRF-5, read-out: PLC/PRF/5 IC50 (μM)
[4] = Homo sapiens, MHCC97L, read-out: MHCC97L IC50 (μM)
[5] = MTT, cells cultured 3-5 days, read-out: PLC/PRF/5 IC50
[6] = MTT, cells cultured 3-5 days, read-out: MHCC97L IC50
[7] = Homo sapiens, PLC-PRF-5, MTT, cells cultured 3-5 days, read-out: PLC/PRF/5 IC50
[8] = Homo sapiens, MHCC97L, MTT, cells cultured 3-5 days, read-out: MHCC97L IC50

Structure (SMILES) | IC50 [1, 5] | IC50 [2, 6] | IC50 [1, 7] | IC50 [2, 8] | also measured
COc1cc(NC(C)=O)c2cc1Oc1ccc(cc1)C[C@H]1c3cc(c(OC)cc3CCN1C)Oc1c(OC)c(OC)cc3c1[C@H](C2)N(C)CC3 [Compound H-01] | – | – | – | – | IC50 [1, 3]: 12.3 µM; IC50 [2, 4]: 12.9 µM
COc1ccc(C(=O)Nc2cc(OC)c3cc2C[C@H]2c4c(cc(OC)c(OC)c4Oc4cc5c(cc4OC)CCN(C)[C@H]5Cc4ccc(cc4)O3)CCN2C)cc1 [Compound H-04] | 5.4 µM | 12.2 µM | – | – | –
COc1cc(NC(=O)OCC(C)C)c2cc1Oc1ccc(cc1)C[C@H]1c3cc(c(OC)cc3CCN1C)Oc1c(OC)c(OC)cc3c1[C@H](C2)N(C)CC3 [Compound H-08] | 4.6 µM | 1.4 µM | – | – | –
COc1cc(NC(=O)CO)c2cc1Oc1ccc(cc1)C[C@H]1c3cc(c(OC)cc3CCN1C)Oc1c(OC)c(OC)cc3c1[C@H](C2)N(C)CC3 [Compound H-12] | – | – | 10.1 µM | 9.1 µM | –
COc1cc(NC(=O)COC(C)=O)c2cc1Oc1ccc(cc1)C[C@H]1c3cc(c(OC)cc3CCN1C)Oc1c(OC)c(OC)cc3c1[C@H](C2)N(C)CC3 [Compound H-13] | 10.1 µM | 8.4 µM | – | – | –
COC(=O)C(=O)Nc1cc(OC)c2cc1C[C@H]1c3c(cc(OC)c(OC)c3Oc3cc4c(cc3OC)CCN(C)[C@H]4Cc3ccc(cc3)O2)CCN1C [Compound H-14] | 12.7 µM | 7.9 µM | – | – | –
COc1cc(NS(C)(=O)=O)c2cc1Oc1ccc(cc1)C[C@H]1c3cc(c(OC)cc3CCN1C)Oc1c(OC)c(OC)cc3c1[C@H](C2)N(C)CC3 [Compound H-17] | – | – | 4.6 µM | 9.8 µM | –
COc1cc(NS(=O)(=O)c2ccccc2)c2cc1Oc1ccc(cc1)C[C@H]1c3cc(c(OC)cc3CCN1C)Oc1c(OC)c(OC)cc3c1[C@H](C2)N(C)CC3 [Compound H-18] | 10.7 µM | 9.1 µM | – | – | –
COc1cc([N+](=O)[O-])c2cc1Oc1ccc(cc1)C[C@H]1c3cc(c(OC)cc3CCN1C)Oc1c(OC)c(OC)cc3c1[C@H](C2)N(C)CC3 [Compound H-27] | – | – | – | – | IC50 [1, 3]: 2.9 µM; IC50 [2, 4]: 1.9 µM
COc1cc([N+](=O)[O-])c2cc1Oc1ccc(cc1)C[C@H]1c3cc(c(OC)cc3CCN1C)Oc1c(OC)c(OC)c([N+](=O)[O-])c3c1[C@H](C2)N(C)CC3 [Compound H-28] | – | – | 20.1 µM | 8.1 µM | –
COc1ccc2cc1Oc1ccc(cc1)C[C@H]1c3cc(c(OC)cc3CCN1C)Oc1c(OCc3ccccc3)c(OC)cc3c1[C@H](C2)[N+](C)(Cc1ccccc1)CC3 (stereo partly shown) [Compound H-31] | – | – | – | – | IC50 [1, 3]: 12.7 µM; IC50 [2, 4]: 12.7 µM

Further lines, with some results ahead:

IC50 [1, 5] | IC50 [2, 6] | IC50 [1, 7] | IC50 [2, 8] | Structure (SMILES) | also measured
10.8 µM | 11.3 µM | – | – | COc1cc(NS(=O)(=O)c2ccccc2[N+](=O)[O-])c2cc1Oc1ccc(cc1)C[C@H]1c3cc(c(OC)cc3CCN1C)Oc1c(OC)c(OC)cc3c1[C@H](C2)N(C)CC3 [Compound H-21] | –
2.1 µM | 5.6 µM | – | – | COc1cc(NS(=O)(=O)c2ccc(Cl)cc2Cl)c2cc1Oc1ccc(cc1)C[C@H]1c3cc(c(OC)cc3CCN1C)Oc1c(OC)c(OC)cc3c1[C@H](C2)N(C)CC3 [Compound H-22] | –
– | – | 14.8 µM | 10.1 µM | COc1cc(N)c2cc1Oc1ccc(cc1)C[C@H]1c3cc(c(OC)cc3CCN1C)Oc1c(OC)c(OC)cc3c1[C@H](C2)N(C)CC3 [Compound H-29] | –
– | – | – | 10.7 µM | COc1cc(N=O)c2cc1Oc1ccc(cc1)C[C@H]1c3cc(c(OC)cc3CCN1C)Oc1c(OC)c(OC)cc3c1[C@H](C2)N(C)CC3 [Compound H-30] | –
– | – | 8.9 µM | 1.26 µM | COc1cc([N+](=O)[O-])c2cc1Oc1ccc(cc1)C[C@H]1c3cc(c(OC)cc3CCN1C)Oc1c(OCc3ccccc3)c(OC)cc3c1[C@H](C2)N(C)CC3 [Compound H-32] | –
– | – | 9.3 µM | – | COc1cc([N+](=O)[O-])c2cc1Oc1ccc(cc1)C[C@H]1c3cc(c(OC)cc3CCN1C)Oc1c(OC(=O)c3ccccc3)c(OC)cc3c1[C@H](C2)N(C)CC3 [Compound H-33] | –
– | – | 7.8 µM | 6.6 µM | COc1cc(N)c2cc1Oc1ccc(cc1)C[C@H]1c3cc(c(OC)cc3CCN1C)Oc1c(OC(=O)c3ccccc3)c(OC)cc3c1[C@H](C2)N(C)CC3 [Compound H-34] | –
